This assay has as its target T1, VviFLS4 (Vitis vinifera, UniProt Q2PHJ7).
T1 construct: gene FLS4; pET-48b(+), printed as C-terminal 6xHis tag fusion; E. coli BL21(DE3), Ni2+ column; tag removal not mentioned
T1 sequence (Q2PHJ7 1-335): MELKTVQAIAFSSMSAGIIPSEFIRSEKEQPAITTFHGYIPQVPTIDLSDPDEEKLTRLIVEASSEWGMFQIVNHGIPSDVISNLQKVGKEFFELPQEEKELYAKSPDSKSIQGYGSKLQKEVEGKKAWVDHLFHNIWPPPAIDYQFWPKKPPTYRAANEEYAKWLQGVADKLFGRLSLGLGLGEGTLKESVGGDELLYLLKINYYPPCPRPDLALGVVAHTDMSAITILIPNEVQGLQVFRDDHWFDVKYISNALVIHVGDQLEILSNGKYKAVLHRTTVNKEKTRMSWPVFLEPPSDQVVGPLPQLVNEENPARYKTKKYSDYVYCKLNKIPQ
The assay is described as follows: HPLC-MS product analysis. It counts as biochemical. The settings on record: converted to kaempferol; 0.5 uM substrate, 10 mM alpha-ketoglutaric acid, 0.25 mM FeSO4, 10 mM ascorbic acid, 100 mM NaH2PO4 pH 6.0, 25 C, 1 h.

The structures appear in SMILES notation.

`O=C1c2c(O)cc(O)cc2O[C@H](c2ccc(O)cc2)[C@H]1O` [dihydrokaempferol]: the HPLC-MS product analysis entry is “DHK into kaempferol, and dihydroquercetin (DHQ) into quercetin, respectively”.

For the origin of these results see paper PMC6933938, “Comparative physiological, metabolomic, and transcriptomic analyses reveal developmental stage-dependent effects of cluster bagging on phenolic metabolism in Cabernet Sauvignon grape berries” (BMC Plant Biology, 2019).
